Measured values: US8933029B2, “Antimicrobial and anti-inflammatory peptides” (Carrus Capital Corporation, priority 2001, dated 2015)
Marks after values point to notes of the source that are not given here. Ends that are not written are not given here.

Assays:
IFNγ = assay: Inhibition of cytokine production in PHA-activated PBLs (ELISA); assay type: cell-based; settings: human PBLs, 10 μg/ml PHA, 48 hours, supernatant ELISA
Method: (§1) Briefly, human PBLs are collected from a subject and plated at 10^6 cells/ml in serum free lymphocyte growth medium, stimulated with 10 μg/ml phytohemagglutinin (PHA) in the presence or absence of the candidate peptide. The PBLs are incubated at 37° C. at 5% CO2 for 48 h, at which point the supernatants were collected. An ELISA is performed on the supernatants to detect a cytokine of interest (e.g., IL-1, TNF-α, IFN-γ) and the cells are incubated for another 72 h to measure proliferation (see, e.g., Sigusch et al., J. Periodontol. 69:1098, 1998).
(§2) Human peripheral blood lymphocytes (PBLs) were collected from a healthy adult […] and plated at 10^6 cells/ml in serum free lymphocyte growth media in a 96-well plate. The PBLs were stimulated with 10 μg/ml PHA in the presence or absence of test sample and incubated at 37° C. at 5% CO2 for 48 hours. Collected and pooled supernatants were stored at −20° C., then assayed with commercially available ELISA kits (Endogen and Biosource) and assayed for viability with LDH (Bochringer Mannheim). The cells remaining after supernatant removal were returned to the incubator and proliferation was determined at 72 hours by using AlamarBlue (Alamar Bioscience). Compounds were tested at 1, 10, 100 and 1000 μg/ml. The peptides were effective at inhibiting cytokine production and PBL proliferation (Table 4), which indicates these peptides can function as anti-inflammatory agents.

IL-10 = assay: as above; assay type: cell-based; settings: human PBLs, 10 μg/ml PHA, 48 hours, supernatant ELISA
Method: as §1, §2

IL-12 = assay: as above; assay type: cell-based; settings: human PBLs, 10 μg/ml PHA, 48 hours, supernatant ELISA
Method: as §1, §2

IL-1α = assay: as above; assay type: cell-based; settings: human PBLs, 10 μg/ml PHA, 48 hours, supernatant ELISA
Method: as §1, §2

IL-2 = assay: as above; assay type: cell-based; settings: human PBLs, 10 μg/ml PHA, 48 hours, supernatant ELISA
Method: as §1, §2

IL-4 = assay: as above; assay type: cell-based; settings: human PBLs, 10 μg/ml PHA, 48 hours, supernatant ELISA
Method: as §1, §2

IL-6 = assay: as above; assay type: cell-based; settings: human PBLs, 10 μg/ml PHA, 48 hours, supernatant ELISA
Method: as §1, §2

TNFα = assay: as above; assay type: cell-based; settings: human PBLs, 10 μg/ml PHA, 48 hours, supernatant ELISA
Method: as §1, §2

[1] = test system: oxazolone contact hypersensitivity (ear inflammation); assay: Oxazolone contact hypersensitivity model; assay type: in vivo, CD-1 mice; settings: Dosage of 0.1%, applied to ear one hour after oxazolone challenge, ear punch weight after 24 h, 70% EtOH/30% propylene glycol vehicle
Method: Briefly, a 3.0% (w/v) solution of oxazolone in acetone/corn oil (5:1) is applied topically to the skin on the shaved abdomens of mice of approximately the same weight and approximately the same age on day 0. […] Twenty-four hours later a dermal biopsy punch of the treated ear is taken and weighed.
CD-1 mice are treated with 3% oxazolone (Sigma) (30 mg/ml) in corn oil:acetone on a shaved abdomen. All solutions are sonicated for 7 minutes. Five days later, the mice are challenged with a 2% oxazolone (20 mg/ml) in acetone on the left ear, with the right ear being left untreated (control). One hour after challenge, the candidate peptide in a 70% EtOH/30% propylene glycol formulation (vehicle) was applied to the left ear, with the right ear being left untreated. After 24 h, 7 mm ear punches are taken from each ear of the mice. The ear punches are placed on a scale and the difference between the treated and untreated ears were compared. The percent inhibition of inflammation was calculated by comparing the mean of each treated group to the control group. The positive control is hydrocortisone (a known anti-inflammatory agent). Most of the indolicidin peptides inhibited inflammation as well as hydrocortisone.

TPA-induced ear edema = assay: TPA ear edema model; settings: for Topical Dose (% change vs. vehicle) 1.0%: topical 1.0%; for Topical Dose (% change vs. vehicle) 1.0% / Topical Dose (% change vs. vehicle) 5 0% / Topical Dose (% change vs. vehicle) 0.1%: ear biopsy weight six hours after TPA; for Topical Dose (% change vs. vehicle) 0.1%: topical 0.1%
[2] = topical 5 0%, formulated in 50% ethanol/5 mM lactate buffer (*)
[3] = formulated in 50% ethanol/5 mM lactate buffer (*)

For “RLWVWWVWRR-NH2 [Peptide 11F17CN, R L W V W W V W R R]”, the “IC50 IFNγ” value (IFNγ) was 93 µg/mL, the “IC50 IL-10” value (IL-10) was 18 µg/mL and the “IC50 IL-12” value (IL-12) was 120 µg/mL. For the same compound, the “IC50 IL-1α” value (IL-1α) was 45 µg/mL, the “IC50 IL-2” value (IL-2) was greater than 1000 µg/mL and the “IC50 IL-4” value (IL-4) was 220 µg/mL. The “IC50 IL-6” value (IL-6) was 500 µg/mL, the “IC50 TNFα” value (TNFα) was 70 µg/mL and the “% Inhibition of Inflammation” value [1] was 71.60%.

“I L Q W P W W P W Q Q Q (ILQWPWWPWQQQ-{CN}) [Peptide 11B38CN]” was tested, and the “Topical Dose (% change vs. vehicle) 1.0%” value (TPA-induced ear edema; formulated in 95% ethanol) was −8% and the “Topical Dose (% change vs. vehicle) 5 0%” value (TPA-induced ear edema; topical 5.0%, formulated in 95% ethanol) was −51%.

For “R L W W Q Q W W R R (RLWWQQWWRR-{CN}) [Peptide 11F60CN]”, the “Topical Dose (% change vs. vehicle) 1.0%” value (TPA-induced ear edema; formulated in 95% ethanol) was −41%.

H-RILRW(Aib)WRILR-CN [Peptide 11J157CN] was tested, and the “Topical Dose (% change vs. vehicle) 0.1%” value (TPA-induced ear edema; formulated in 95% ethanol) was “+5%” and the “Topical Dose (% change vs. vehicle) 1.0%” value (TPA-induced ear edema; formulated in 95% ethanol) was −55%.

For “Y R Y Y K P K Y R Y P K Y (YRYYKPKYRYPKY-{CN}) [Peptide 11J32CN]”, the “Topical Dose (% change vs. vehicle) 1.0%” value (TPA-induced ear edema; formulated in 95% ethanol) was −30%.

For “I L E E W P W W P W E E E (ILEEWPWWPWEEE-{CN}) [Peptide 11B11CN]”, the “Topical Dose (% change vs. vehicle) 5 0%” value (TPA-induced ear edema; [2]) was −64* %.

“WRWWKPKWRWPKW-NH2 [Peptide 11J02CN, W R W W K P K W R W P K W]” was tested, and the “IC50 IFNγ” value (IFNγ) was 45 µg/mL, the “IC50 IL-10” value (IL-10) was 23 µg/mL and the “IC50 IL-12” value (IL-12) was 34 µg/mL. For the same compound, the “IC50 IL-1α” value (IL-1α) was 7 µg/mL, the “IC50 IL-2” value (IL-2) was greater than 1000 µg/mL and the “IC50 IL-4” value (IL-4) was 115 µg/mL. The “IC50 IL-6” value (IL-6) was 510 µg/mL, the “IC50 TNFα” value (TNFα) was 34 µg/mL and the “% Inhibition of Inflammation” value [1] was 58.12%. For the same compound, the “Topical Dose (% change vs. vehicle) 1.0%” value (TPA-induced ear edema; formulated in 95% ethanol) was −44%.

In the case of “R L L V W W V L R R (RLLVWWVLRR-{CN}) [Peptide 11F82CN]”, the “Topical Dose (% change vs. vehicle) 1.0%” value (TPA-induced ear edema; formulated in 95% ethanol) is reported as −62%.

With “L R F L K W A F R L W K L (LRFLKWAFRLWKL-{CN}) [Peptide 11J45CN]” the “Topical Dose (% change vs. vehicle) 1.0%” value (TPA-induced ear edema; formulated in 95% ethanol) was −69%.

With “RLVVWVVWRR-NH2 [Peptide 11F66CN, R L V V W V V W R R]” the “IC50 IFNγ” value (IFNγ) was 125 µg/mL, the “IC50 IL-10” value (IL-10) was 40 µg/mL and the “IC50 IL-12” value (IL-12) was 280 µg/mL. The “IC50 IL-1α” value (IL-1α) was greater than 1000 µg/mL, the “IC50 IL-2” value (IL-2) was 480 µg/mL and the “IC50 IL-4” value (IL-4) was greater than 1000 µg/mL. The “IC50 IL-6” value (IL-6) was 1 µg/mL, the “IC50 TNFα” value (TNFα) was 110 µg/mL and the “% Inhibition of Inflammation” value [1] was 79.85%. For the same compound, the “Topical Dose (% change vs. vehicle) 0.1%” value (TPA-induced ear edema; [3]) was −17* %, the “Topical Dose (% change vs. vehicle) 1.0%” value (TPA-induced ear edema; [3]) was −64* % and the “Topical Dose (% change vs. vehicle) 5 0%” value (TPA-induced ear edema; [2]) was −81* %.

“H-ILRWVWRILR-CN (H-ILRWVWRILR-{CN}; not fully specified) [Peptide 11J131CN]” was tested, and the “Topical Dose (% change vs. vehicle) 0.1%” value (TPA-induced ear edema; formulated in 95% ethanol) was −20% and the “Topical Dose (% change vs. vehicle) 1.0%” value (TPA-induced ear edema; formulated in 95% ethanol) was −43%.

`CC[C@H]1OC(=O)[C@H](C)[C@@H](O[C@H]2C[C@@](C)(OC)[C@@H](O)[C@H](C)O2)[C@H](C)[C@@H](O[C@@H]2O[C@H](C)C[C@H](N(C)C)[C@H]2O)[C@](C)(O)C[C@@H](C)C(=O)[C@H](C)[C@@H](O)[C@]1(C)O` [Erythromycin, erythromycin, reference compound] was tested, and the “Topical Dose (% change vs. vehicle) 0.1%” value (TPA-induced ear edema; [3]) was −20* %, the “Topical Dose (% change vs. vehicle) 1.0%” value (TPA-induced ear edema; [3]) was −67* % and the “Topical Dose (% change vs. vehicle) 5 0%” value (TPA-induced ear edema; [2]) was −87* %.

With “WRWWKVAWRWVKW-NH2 [Peptide 11J30CN, W R W W K V A W R W V K W]” the “IC50 IFNγ” value (IFNγ) was 28 µg/mL, the “IC50 IL-10” value (IL-10) was 33 µg/mL and the “IC50 IL-12” value (IL-12) was 26 µg/mL. For the same compound, the “IC50 IL-1α” value (IL-1α) was 25 µg/mL, the “IC50 IL-2” value (IL-2) was greater than 1000 µg/mL and the “IC50 IL-4” value (IL-4) was 65 µg/mL. The “IC50 IL-6” value (IL-6) was 4 µg/mL, the “IC50 TNFα” value (TNFα) was 36 µg/mL and the “% Inhibition of Inflammation” value [1] was 94.15%. For the same compound, the “Topical Dose (% change vs. vehicle) 1.0%” value (TPA-induced ear edema; formulated in 95% ethanol) was −26%.

For “H-LRFLKW(Aib)WRFLKL-CN [Peptide 11J105CN]”, the “Topical Dose (% change vs. vehicle) 0.1%” value (TPA-induced ear edema; formulated in 95% ethanol) was −4% and the “Topical Dose (% change vs. vehicle) 1.0%” value (TPA-induced ear edema; formulated in 95% ethanol) was −51%.

“H-ILRWVWRIL-CN (H-ILRWVWRIL-{CN}) [Peptide 11J148CN]” was tested, and the “Topical Dose (% change vs. vehicle) 0.1%” value (TPA-induced ear edema; formulated in 95% ethanol) was −33% and the “Topical Dose (% change vs. vehicle) 1.0%” value (TPA-induced ear edema; formulated in 95% ethanol) was −74%.

“R L W V V V V W R R (RLWVVVVWRR-{CN}) [Peptide 11F65CN]” was tested, and the “Systemic Dose (% change vs. vehicle) 5 mg/kg” value (TPA-induced ear edema; systemic 5 mg/kg) was −15% and the “Topical Dose (% change vs. vehicle) 1.0%” value (TPA-induced ear edema; formulated in 95% ethanol) was −94%.

For “R L G G G G G G R R (RLGGGGGGRR-{CN}) [Peptide 11F83CN]”, the “Topical Dose (% change vs. vehicle) 1.0%” value (TPA-induced ear edema; formulated in 95% ethanol) was −28%.
